The text below walks through data of publication PMC6039436, “Radiobrominated benzimidazole-quinoline derivatives as Platelet-derived growth factor receptor beta (PDGFRβ) imaging probes” (Scientific Reports, 2018).

SMILES strings stand for the structures.

This test has as its target T1, PDGFRβ (BxPC3-luc cells) (Homo sapiens, UniProt P09619).
T1 construct: host or cells: BxPC3-luc cells
The test can be described thus: Competitive binding assay of [^125I]4 with BxPC3-luc cells. As to conditions: displacement of [^125I]4, BxPC3-luc cells, 37 °C, 4 h. Here is the method: We investigated the competitive binding of [^125I]4 to BxPC3-luc cells with PDGFRβ ligand, 1, 2, and 3.
BxPC3-luc cells in medium containing 10% FBS and antibiotics were seeded on 24-well plates (50,000 cells/wells) and incubated for 24 h in a 5% CO2 incubator at 37 °C. Nine concentrations of displacing nonradiolabeled ligands (1, 2 and 3) (ranging from 1 pM to 1 mM) and [^125I]4 in medium without FBS were incubated at 37 °C for 4 h. After washing the cells twice using 250 µL of ice-cold PBS, the unbound radioligand was removed. The cells were dissolved using 250 µL of 1 M NaOH and wells were washed with 250 µL of 1 M NaOH. The bound radioactivity was determined using a gamma counter.
All data were statisticaly analyzed using GraphPad 5.0 software (La Jolla, CA, USA) and expressed as mean ± standard deviation (SD). Significance for in vitro blocking experiments was determined by a one-way analysis of variance (ANOVA) followed by Dunnett’s post hoc test compared to the control group. Significance in cell viability assays was determined by ANOVA followed by Tukey’s post hoc test. IC50 values for the binding assay were calculated by nonlinear regression. Significant differences in biodistribution experiments between [^77Br]2 and [^77Br]3 groups were determined using unpaired Student’s t-test. Significance for in vivo blocking studies between control and blocking groups were determined by unpaired Student’s t-test. Results were considered statistically significant at p < 0.05.

T1 sequence (P09619 33-1106): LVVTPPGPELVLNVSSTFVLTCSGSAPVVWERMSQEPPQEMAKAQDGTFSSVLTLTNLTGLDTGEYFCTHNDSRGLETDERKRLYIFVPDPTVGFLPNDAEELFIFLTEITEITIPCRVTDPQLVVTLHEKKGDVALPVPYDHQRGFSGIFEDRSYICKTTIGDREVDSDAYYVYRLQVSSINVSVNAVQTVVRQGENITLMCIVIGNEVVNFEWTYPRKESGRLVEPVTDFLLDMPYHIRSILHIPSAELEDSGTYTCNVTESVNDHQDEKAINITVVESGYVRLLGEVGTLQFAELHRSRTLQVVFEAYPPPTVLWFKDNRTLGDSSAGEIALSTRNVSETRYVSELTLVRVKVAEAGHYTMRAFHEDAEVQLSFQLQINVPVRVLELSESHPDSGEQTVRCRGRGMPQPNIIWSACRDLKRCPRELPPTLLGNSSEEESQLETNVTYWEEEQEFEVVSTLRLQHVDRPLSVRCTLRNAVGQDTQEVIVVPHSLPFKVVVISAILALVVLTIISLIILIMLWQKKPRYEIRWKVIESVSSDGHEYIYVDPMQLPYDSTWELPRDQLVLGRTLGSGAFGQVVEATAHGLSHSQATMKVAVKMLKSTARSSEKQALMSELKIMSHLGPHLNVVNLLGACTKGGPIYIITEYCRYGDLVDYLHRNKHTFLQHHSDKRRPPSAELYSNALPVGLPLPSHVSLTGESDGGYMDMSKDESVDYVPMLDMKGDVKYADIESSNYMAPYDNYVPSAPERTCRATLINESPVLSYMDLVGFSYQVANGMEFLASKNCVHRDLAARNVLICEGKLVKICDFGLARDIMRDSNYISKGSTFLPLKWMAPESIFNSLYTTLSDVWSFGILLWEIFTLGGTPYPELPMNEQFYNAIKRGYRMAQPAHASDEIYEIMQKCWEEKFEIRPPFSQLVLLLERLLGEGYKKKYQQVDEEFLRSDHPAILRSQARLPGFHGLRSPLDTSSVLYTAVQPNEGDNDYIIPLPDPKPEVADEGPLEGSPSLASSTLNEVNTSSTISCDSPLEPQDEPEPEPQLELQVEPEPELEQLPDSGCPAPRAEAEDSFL

One may read the IC50 as the concentration needed to halve the response being measured. The low end stands for inhibition by little substance, the high end for a need for much substance. `COCCOc1ccc2c(c1)ncn2-c1ccc2cccc(N3CCC(N)CC3)c2n1` [Compound 1, 1-{2-[5-(2-methoxyethoxy)-1H-benzo[d]imidazol-1-yl]quinolin-8-yl}piperidin-4-amine, reference compound] gave an IC50 of 183 ± 8 nM.
The result for `COCCOc1ccc2c(c1)ncn2-c1ccc2cccc(N3CCC(NC(=O)c4cccc(Br)c4)CC3)c2n1` [Compound 3, N-3-bromobenzoyl-1-{2-[5-(2-methoxyethoxy)-1H-benzo[d]imidazol-1-yl]quinolin-8-yl}-piperidin-4-amine] reads 1280 nM.
